The numbers were not newly measured in US20030167159A1, “Method for determining molecular surface areas and volumes” (California Institute of Technology, priority 2001, published 2003), which cites them from elsewhere.

What all share (conditions): as reported in Bursulaya et al.
For series [1], the target named is T1, L-Arabinose binding protein (ara) (Escherichia coli, UniProt P02924).
T1 sequence (P02924 24-329): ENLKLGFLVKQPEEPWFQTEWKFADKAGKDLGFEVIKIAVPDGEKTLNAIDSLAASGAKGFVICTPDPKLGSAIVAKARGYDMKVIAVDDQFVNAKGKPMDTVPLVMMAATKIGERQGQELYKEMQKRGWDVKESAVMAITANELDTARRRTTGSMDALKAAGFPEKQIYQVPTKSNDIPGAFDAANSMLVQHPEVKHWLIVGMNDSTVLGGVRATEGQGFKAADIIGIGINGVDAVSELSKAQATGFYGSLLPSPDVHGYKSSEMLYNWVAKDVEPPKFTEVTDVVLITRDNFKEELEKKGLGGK

Another series concerns the target T2, Carboxypeptidase A (car) (Bos taurus, UniProt P00730).
T2 sequence (P00730 111-419): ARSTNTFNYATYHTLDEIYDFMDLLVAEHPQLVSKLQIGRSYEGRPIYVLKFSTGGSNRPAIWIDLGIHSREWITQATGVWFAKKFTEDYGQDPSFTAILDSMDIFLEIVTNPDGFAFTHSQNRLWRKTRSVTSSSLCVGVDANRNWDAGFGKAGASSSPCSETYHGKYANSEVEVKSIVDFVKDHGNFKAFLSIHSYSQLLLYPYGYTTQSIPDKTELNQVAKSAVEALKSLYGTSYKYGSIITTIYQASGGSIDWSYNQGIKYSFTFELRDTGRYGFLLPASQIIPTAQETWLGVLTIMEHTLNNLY

In another series the target is T3, ε-Thrombin (ret) (Bos taurus, UniProt P00735).
T3 construct: ε-Thrombin (ret)

The target of another series is T4, Trypsin (trp) (Bos taurus, UniProt P00760).
T4 sequence (P00760 24-246): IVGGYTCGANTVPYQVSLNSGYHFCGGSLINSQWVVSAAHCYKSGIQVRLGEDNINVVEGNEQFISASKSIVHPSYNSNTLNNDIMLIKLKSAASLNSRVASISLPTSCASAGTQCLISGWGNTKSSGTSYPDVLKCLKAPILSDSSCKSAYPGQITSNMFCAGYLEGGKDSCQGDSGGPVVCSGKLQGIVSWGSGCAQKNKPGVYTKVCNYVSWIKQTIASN

In series [2] the target is T5, Cytochrome P-450cam (cyt) (Pseudomonas putida, UniProt P00183).
T5 sequence (P00183 1-415): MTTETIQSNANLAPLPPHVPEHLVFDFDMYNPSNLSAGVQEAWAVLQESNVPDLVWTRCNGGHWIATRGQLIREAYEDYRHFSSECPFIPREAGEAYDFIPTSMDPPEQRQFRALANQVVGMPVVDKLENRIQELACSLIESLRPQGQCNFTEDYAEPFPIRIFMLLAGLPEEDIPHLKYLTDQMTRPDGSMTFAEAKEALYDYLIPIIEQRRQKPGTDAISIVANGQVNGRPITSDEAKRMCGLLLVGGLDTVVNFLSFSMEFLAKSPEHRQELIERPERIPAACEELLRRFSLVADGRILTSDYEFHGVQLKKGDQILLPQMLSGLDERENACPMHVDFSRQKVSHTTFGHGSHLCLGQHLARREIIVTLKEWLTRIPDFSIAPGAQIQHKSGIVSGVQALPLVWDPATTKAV

In the next series the target is T6, Intestinal FABP (fab) (Rattus norvegicus, UniProt P02693).
T6 sequence (P02693 1-132): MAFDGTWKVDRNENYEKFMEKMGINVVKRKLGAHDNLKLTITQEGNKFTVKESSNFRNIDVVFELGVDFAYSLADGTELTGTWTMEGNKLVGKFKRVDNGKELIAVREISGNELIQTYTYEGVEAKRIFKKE

Each structure is given as a SMILES string. Where a SMILES comes first, the peptide text is derived from it.

Consider `O[C@@H]1[C@@H](O)[C@@H](O)CO[C@H]1O` [1abe], for which, in series [1], the “percentage of ligands in the 10037-compound database that score better than the co-crystal ligand, DOCK” value (“percentage of ligands … DOCK” for short) is recorded as 0.5%; the “percentage of ligands in the 10037-compound database that score better than the co-crystal ligand, FlexX” value (shortened to “percentage of ligands … FlexX”) is 0.2%; the “percentage of ligands in the 10037-compound database that score better than the co-crystal ligand, ICM” value (“percentage of ligands … ICM” for short) is reported as 0.01%.
For `C[C@H]1O[C@H](O)[C@H](O)[C@@H](O)[C@H]1O` [1abf], in series [1], the “percentage of ligands … DOCK” value is 1.2%; the “percentage of ligands … FlexX” value is given as 0.2%; the “percentage of ligands … ICM” value was 0.03%.
In the case of `O=C(O)C[C@@H](Cc1ccccc1)C(=O)O` [1cbx], at Carboxypeptidase A (car), the “percentage of ligands … DOCK” value is reported as 36.8%; the “percentage of ligands … FlexX” value is given as 2.7%; the “percentage of ligands … ICM” value is on record as 0.2%.
As for `Cc1ccc(S(=O)(=O)N[C@@H](Cc2ccc(C(=N)N)cc2)C(=O)N2CCCCC2)cc1` [1ett], the “percentage of ligands … DOCK” value on ε-Thrombin (ret) (Dock) is 0.9%. For the same compound, the “percentage of ligands … FlexX” value at ε-Thrombin (ret) (FlexX) is given as 9%. Moreover, the “percentage of ligands … ICM” value on ε-Thrombin (ret) (ICM) is listed as 0.06%.
With `Cc1ccc(S(=O)(=O)N[C@@H](Cc2cccc(C(=N)N)c2)C(=O)N2CCCCC2)cc1` [1pph], at Trypsin (trp), the “percentage of ligands … DOCK” value is given as 37%; the “percentage of ligands … FlexX” value is recorded as 0.6%; the “percentage of ligands … ICM” value is 0.3%.
Take `NCC1CCCCC1` [1tng]: at Trypsin (trp), the “percentage of ligands … DOCK” value is reported as 28.7%; the “percentage of ligands … FlexX” value is on record as 30.8%; the “percentage of ligands … ICM” value was 0.3%.
For `NCCc1ccccc1` [1tnj], on Trypsin (trp), the “percentage of ligands … DOCK” value is on record as 45.1%; the “percentage of ligands … FlexX” value is reported as 47.9%; the “percentage of ligands … ICM” value is given as 1.1%.
With `NCCCc1ccccc1` [1tnk], on Trypsin (trp), the “percentage of ligands … DOCK” value was 58.1%; the “percentage of ligands … FlexX” value is on record as 37.1%; the “percentage of ligands … ICM” value is 14.6%.
Turning to `N[C@H]1C[C@@H]1c1ccccc1` [1tnl], on Trypsin (trp), the “percentage of ligands … DOCK” value is reported as 82.9%; the “percentage of ligands … FlexX” value was 39.1%; the “percentage of ligands … ICM” value is 51.6%.
Turning to `CC12CCC(CC1=O)C2(C)C` (stereo not drawn) [2cpp], the “percentage of ligands … DOCK” value in series [2] (Dock) was 7.3%. Besides, the “percentage of ligands … FlexX” value in series [2] (FlexX) was 12.6%. Also, the “percentage of ligands … ICM” value in series [2] (ICM) is listed as 11.7%.
Take `CCCCCCCCCCCCCCCC(=O)O` [2ifb]: on Intestinal FABP (fab) (Dock), the “percentage of ligands … DOCK” value was 7.1%. Further, the “percentage of ligands … FlexX” value at Intestinal FABP (fab) (FlexX) is recorded as 99.3%. For the same compound, the “percentage of ligands … ICM” value at Intestinal FABP (fab) (ICM) was 0.5%.
Take `NCC(=O)N[C@@H](Cc1ccc(O)cc1)C(=O)O` [3cpa] (H-Gly-Tyr-OH): at Carboxypeptidase A (car), the “percentage of ligands … DOCK” value is 14.2%; the “percentage of ligands … FlexX” value is 1.4%; the “percentage of ligands … ICM” value is 0.3%.
With `N=C(N)c1ccccc1` [3ptb], on Trypsin (trp), the “percentage of ligands … DOCK” value was 20.3%; the “percentage of ligands … FlexX” value is given as 14%; the “percentage of ligands … ICM” value is reported as 0.1%.
With `OC[C@H]1OC(O)[C@H](O)[C@@H](O)[C@H]1O` (stereo partly drawn) [5abp], in series [1], the “percentage of ligands … DOCK” value is recorded as 0.2%; the “percentage of ligands … FlexX” value is 0.4%; the “percentage of ligands … ICM” value was 0.02%.
